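Cultured in 96-well plates, cells were exposed to test compound for 48 hours across five concentrations. GI50 = concentration required for 50% inhibition of growth.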 Activity calls are given as the source filed them. Cut-off read from the data, not from the text of the source: active = GI50 up to about 1.1 µM and inactive = higher.
How the values were obtained:
Assay in all cases: inhibition of tumour cell growth, NCI panel, 48 h
[1] = test system: 786-0
[2] = test system: A549
[3] = test system: ACHN
[4] = test system: CCRF-CEM
[5] = test system: COLO 205
[6] = test system: DLD-1
[7] = test system: DMS-114
[8] = test system: DMS-273
[9] = test system: EKVX
[10] = test system: HCC 2998
[11] = test system: HCT-116
[12] = test system: HCT-15
[13] = test system: HL-60
[14] = test system: HOP-62
[15] = test system: HT-29
[16] = test system: IGROV-1
[17] = test system: K562
[18] = test system: KM-20L2
[19] = test system: KM12
[20] = test system: LOX IMVI
[21] = test system: LXFL 529
[22] = test system: M14
[23] = test system: M19-MEL
[24] = test system: MOLT-4
[25] = test system: Malme-3M
[26] = test system: NCI-H226
[27] = test system: NCI-H23
[28] = test system: NCI-H460
[29] = test system: NCI-H522
[30] = test system: OVCAR-3
[31] = test system: OVCAR-8
[32] = test system: RPMI-8226
[33] = test system: RXF 393
[34] = test system: SF-268
[35] = test system: SF-295
[36] = test system: SF-539
[37] = test system: SK-MEL-28
[38] = test system: SK-OV-3
[39] = test system: SN12C
[40] = test system: SNB-19
[41] = test system: SNB-75
[42] = test system: SNB-78
[43] = test system: SR
[44] = test system: SW-620
[45] = test system: TK-10
[46] = test system: U-251
[47] = test system: UACC-257
[48] = test system: UACC-62
[49] = test system: UO-31
[50] = test system: CAKI-1
[51] = test system: HOP-92
[52] = test system: OVCAR-4
[53] = test system: OVCAR-5
[54] = test system: SK-MEL-2
[55] = test system: XF498

SMILES: COCOc1ccc(Cn2c(=O)n(C)c(=O)c3c2ncn3C)cc1[N+](=O)[O-]
- GI50 [1]: > 100 µM (inactive)
- GI50 [2]: > 100 µM (inactive)
- GI50 [3]: > 100 µM (inactive)
- GI50 [4]: > 100 µM (inactive)
- GI50 [5]: > 100 µM (inactive)
- GI50 [6]: > 100 µM (inactive)
- GI50 [7]: 44.6 µM (inactive)
- GI50 [8]: > 100 µM (inactive)
- GI50 [9]: 54.7 µM (inactive)
- GI50 [10]: > 100 µM (inactive)
- GI50 [11]: > 100 µM (inactive)
- GI50 [12]: > 100 µM
- GI50 [13]: > 100 µM (inactive)
- GI50 [14]: > 10 µM (inactive)
- GI50 [15]: 10.2 µM (inactive)
- GI50 [16]: > 100 µM (inactive)
- GI50 [17]: > 100 µM (inactive)
- GI50 [18]: > 100 µM (inactive)
- GI50 [19]: > 100 µM (inactive)
- GI50 [20]: > 100 µM (inactive)
- GI50 [21]: 79.8 µM (inactive)
- GI50 [22]: > 100 µM (inactive)
- GI50 [23]: > 100 µM (inactive)
- GI50 [24]: 91.8 µM (inactive)
- GI50 [25]: > 100 µM (inactive)
- GI50 [26]: 46.3 µM (inactive)
- GI50 [27]: 80.2 µM (inactive)
- GI50 [28]: > 100 µM (inactive)
- GI50 [29]: > 100 µM (inactive)
- GI50 [30]: > 100 µM (inactive)
- GI50 [31]: > 100 µM (inactive)
- GI50 [32]: 66.2 µM (inactive)
- GI50 [33]: > 100 µM (inactive)
- GI50 [34]: > 100 µM (inactive)
- GI50 [35]: 25.7 µM (inactive)
- GI50 [36]: > 100 µM (inactive)
- GI50 [37]: > 100 µM (inactive)
- GI50 [38]: 49.3 µM (inactive)
- GI50 [39]: > 100 µM (inactive)
- GI50 [40]: > 100 µM (inactive)
- GI50 [41]: 59.6 µM (inactive)
- GI50 [42]: > 100 µM (inactive)
- GI50 [43]: > 100 µM (inactive)
- GI50 [44]: > 100 µM (inactive)
- GI50 [45]: > 100 µM (inactive)
- GI50 [46]: > 100 µM (inactive)
- GI50 [47]: 57.5 µM (inactive)
- GI50 [48]: > 100 µM (inactive)
- GI50 [49]: > 100 µM (inactive)

SMILES: CC(C)C(Nc1c2ccccc2nc2ccccc12)C(=O)O (stereo unspecified)
- GI50 [1]: > 100 µM (inactive)
- GI50 [2]: > 100 µM (inactive)
- GI50 [3]: 49.2 µM (inactive)
- GI50 [50]: > 100 µM (inactive)
- GI50 [4]: > 100 µM (inactive)
- GI50 [5]: 70.1 µM (inactive)
- GI50 [6]: > 100 µM (inactive)
- GI50 [8]: 68.4 µM (inactive)
- GI50 [9]: 67.8 µM (inactive)
- GI50 [10]: > 100 µM (inactive)
- GI50 [11]: 43.3 µM (inactive)
- GI50 [12]: > 100 µM
- GI50 [13]: 52.6 µM (inactive)
- GI50 [51]: 29.2 µM (inactive)
- GI50 [15]: 59.7 µM (inactive)
- GI50 [16]: > 100 µM (inactive)
- GI50 [17]: > 100 µM (inactive)
- GI50 [18]: > 100 µM (inactive)
- GI50 [19]: > 100 µM (inactive)
- GI50 [20]: 55.1 µM (inactive)
- GI50 [21]: > 100 µM (inactive)
- GI50 [22]: > 100 µM (inactive)
- GI50 [23]: > 100 µM (inactive)
- GI50 [24]: 38.7 µM (inactive)
- GI50 [25]: > 100 µM (inactive)
- GI50 [26]: > 100 µM (inactive)
- GI50 [27]: > 100 µM (inactive)
- GI50 [28]: 65.5 µM (inactive)
- GI50 [29]: > 100 µM (inactive)
- GI50 [30]: 94.2 µM (inactive)
- GI50 [52]: 20.7 µM (inactive)
- GI50 [53]: > 100 µM (inactive)
- GI50 [31]: > 100 µM (inactive)
- GI50 [32]: 32.5 µM (inactive)
- GI50 [33]: > 100 µM (inactive)
- GI50 [34]: > 100 µM (inactive)
- GI50 [35]: > 100 µM (inactive)
- GI50 [36]: > 100 µM (inactive)
- GI50 [37]: > 100 µM (inactive)
- GI50 [54]: > 100 µM (inactive)
- GI50 [38]: > 100 µM (inactive)
- GI50 [39]: > 100 µM (inactive)
- GI50 [40]: > 100 µM (inactive)
- GI50 [41]: > 100 µM (inactive)
- GI50 [43]: 46.5 µM (inactive)
- GI50 [44]: > 100 µM (inactive)
- GI50 [45]: > 100 µM (inactive)
- GI50 [46]: > 100 µM (inactive)
- GI50 [47]: > 100 µM (inactive)
- GI50 [48]: > 100 µM (inactive)
- GI50 [49]: 29.1 µM (inactive)
- GI50 [55]: 3.08 µM (inactive)
